Reference: article doi:10.1101/2024.05.22.595443v1 (biorxiv, 2024)

What was measured:
PRMT5:MEP50 complex = PRMT5:MEP50 complex (Homo sapiens, UniProt O14744); experiment: SPR; type: binding
EZH2 = EZH2 (Homo sapiens, UniProt Q15910); experiment: SPR; type: binding
Chain of EZH2 (Q15910 whole entry): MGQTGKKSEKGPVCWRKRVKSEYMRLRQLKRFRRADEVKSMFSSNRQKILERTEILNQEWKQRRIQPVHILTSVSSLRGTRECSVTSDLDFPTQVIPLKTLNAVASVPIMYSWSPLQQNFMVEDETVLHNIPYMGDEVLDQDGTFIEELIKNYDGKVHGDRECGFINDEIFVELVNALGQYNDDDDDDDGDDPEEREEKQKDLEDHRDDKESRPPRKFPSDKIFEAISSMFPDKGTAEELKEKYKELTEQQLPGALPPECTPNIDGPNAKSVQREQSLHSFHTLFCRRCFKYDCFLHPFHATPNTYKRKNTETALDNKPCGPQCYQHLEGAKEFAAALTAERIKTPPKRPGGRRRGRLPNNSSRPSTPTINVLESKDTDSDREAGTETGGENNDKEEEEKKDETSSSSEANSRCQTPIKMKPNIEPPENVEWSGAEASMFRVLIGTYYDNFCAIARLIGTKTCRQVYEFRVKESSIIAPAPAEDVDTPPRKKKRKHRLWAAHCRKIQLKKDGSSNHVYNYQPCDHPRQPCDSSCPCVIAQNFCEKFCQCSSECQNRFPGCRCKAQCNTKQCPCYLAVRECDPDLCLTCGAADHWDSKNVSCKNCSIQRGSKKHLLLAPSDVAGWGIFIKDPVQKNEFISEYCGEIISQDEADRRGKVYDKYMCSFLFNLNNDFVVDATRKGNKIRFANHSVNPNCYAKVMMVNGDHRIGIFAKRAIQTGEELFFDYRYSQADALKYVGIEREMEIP

Chain of PRMT5:MEP50 complex (O14744 2-637): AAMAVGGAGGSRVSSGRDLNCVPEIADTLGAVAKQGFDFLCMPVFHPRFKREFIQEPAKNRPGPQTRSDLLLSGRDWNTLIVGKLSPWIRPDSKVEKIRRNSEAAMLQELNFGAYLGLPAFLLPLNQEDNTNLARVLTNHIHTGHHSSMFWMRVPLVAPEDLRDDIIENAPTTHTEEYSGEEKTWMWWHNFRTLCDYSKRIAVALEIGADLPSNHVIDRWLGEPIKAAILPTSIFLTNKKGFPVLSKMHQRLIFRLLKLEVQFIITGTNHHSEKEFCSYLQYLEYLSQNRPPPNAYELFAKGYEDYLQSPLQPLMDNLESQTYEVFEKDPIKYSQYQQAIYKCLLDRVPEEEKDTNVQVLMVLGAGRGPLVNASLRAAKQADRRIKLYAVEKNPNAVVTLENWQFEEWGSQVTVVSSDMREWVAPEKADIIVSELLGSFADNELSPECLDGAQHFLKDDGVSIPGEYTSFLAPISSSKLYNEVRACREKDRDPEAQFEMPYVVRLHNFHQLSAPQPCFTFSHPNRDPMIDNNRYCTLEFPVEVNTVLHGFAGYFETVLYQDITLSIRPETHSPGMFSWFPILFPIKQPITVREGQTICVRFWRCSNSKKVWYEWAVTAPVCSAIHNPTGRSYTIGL
Chain of PRMT5:MEP50 complex (Q9BQA1 whole entry partner): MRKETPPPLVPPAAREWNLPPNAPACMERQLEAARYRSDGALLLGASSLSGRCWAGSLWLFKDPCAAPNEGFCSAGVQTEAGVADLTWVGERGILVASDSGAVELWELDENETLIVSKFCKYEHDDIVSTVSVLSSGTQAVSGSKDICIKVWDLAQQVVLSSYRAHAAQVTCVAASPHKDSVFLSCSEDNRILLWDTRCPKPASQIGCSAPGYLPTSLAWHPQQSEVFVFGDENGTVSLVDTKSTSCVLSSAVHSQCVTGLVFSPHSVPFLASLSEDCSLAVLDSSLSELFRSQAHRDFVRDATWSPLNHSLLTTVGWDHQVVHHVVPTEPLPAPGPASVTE

`O=c1oc2c(O)c(O)cc3c(=O)oc4c(O)c(O)cc1c4c23` [Ellagic acid] showed a Kd (PRMT5:MEP50 complex) of 65.4 µM and a Kd (EZH2) of 3.28 µM.
